Earlier results, collected in patent publication US20220071922A1, “DELIVERY OF HEALTH BENEFITS THROUGH COMPONENT FORMULATION” (Clear Lake Research, LLC, priority 2018, published 2022).

Assays:
CB2 receptors = CB2 receptors (Homo sapiens, UniProt P34972); conditions: estimated; times the affinity of CBD
[1] = phytocannabinoids interact with oxygen; without nitrogen overlay
[2] = applied topically

Chain of CB2 receptors (P34972 whole entry): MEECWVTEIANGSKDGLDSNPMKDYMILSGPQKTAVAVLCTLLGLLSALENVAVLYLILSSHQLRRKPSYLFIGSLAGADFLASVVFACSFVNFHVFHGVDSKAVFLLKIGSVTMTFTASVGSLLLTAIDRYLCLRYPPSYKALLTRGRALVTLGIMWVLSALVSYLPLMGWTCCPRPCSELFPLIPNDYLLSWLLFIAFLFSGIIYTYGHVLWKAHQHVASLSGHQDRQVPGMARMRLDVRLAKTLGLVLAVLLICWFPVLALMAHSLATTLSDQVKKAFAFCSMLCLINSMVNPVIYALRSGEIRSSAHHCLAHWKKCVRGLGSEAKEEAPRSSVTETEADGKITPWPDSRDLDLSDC

Row | SMILES | affinity relative to CBD (CB2 receptors) | shelf life [1] | time to significant pain relief impact [2]
1 | CCCCC/C=C\C/C=C\CCCCCCCC(=O)OC(CO)CO [2-Lineoleoyl-glycerol] | ~1,000 times | – | –
2 | CCCCCCCCCCCCCCCC(=O)OC(CO)CO [2-Palmitolyl-glycerol] | ~1,000 times | – | –
3 | C=C(C)[C@@H]1CCC(C)=C[C@H]1c1c(O)cc(CCCCC)cc1O [CBD, cannabidiol] | – | about six | about 30 minutes
